Reference: patent US20050182065A1, “Method of stimulating hair growth” (priority 2004, published 2005)

Assays:
C3H/HeN mice [1] = assay: Telogen Conversion Assay; format: in vivo; details: for Results: number of days following initiation of treatment when hair growth appeared in 50% of the mice: topical once daily for 5 days
Text: The Telogen Conversion Assay measures the potential of a compound (hereinafter referred to as the “test compound”) to convert mice in the resting stage of the hair growth cycle (“telogen”) to the active stage of the hair growth cycle (“anagen”). This assay takes advantage of the fact that the fur (i.e. hair) of 40-day-old C3H/HeN mice is in the telogen phase. This phase usually continues until about 75 days of age, at which point, anagen naturally occurs in these animals. In this assay, selected areas of 40-day-old mice (approximate) are shaved, contacted with a test agent, or a control, and the difference in the rate of hair growth is measured (i.e. induction of the anagen phase). The first sign of anagen is the darkening of skin color as melanocytes in the follicles start to synthesize melanin, in preparation for the production of pigmented hairs.
Female C3H/HeN mice, 7 weeks old (Charles River Laboratories, Raleigh, N.C.) were used for the study. Fur was clipped from the dorsal region of the mice prior to initiation of the study. Only mice with pink skin, a visual indication of the telogen phase, were selected for inclusion in the study.
Test compounds (from Table A) were dissolved in a vehicle consisting of propylene glycol (30%) and ethanol (70%). A test compound dissolved in vehicle, or a vehicle control (30/70 propylene glycol/ethanol, unless otherwise specified) was applied topically to the clipped dorsal region of the mice in each test group (7-10 mice) in a volume of 20 μl/cm^2. Treatments were applied once daily for 5 days.
The treatment area was observed and graded for signs of hair growth. The hair growth response was quantified by recording, for each animal, the day on which signs of hair growth first appeared over the treated area. The first sign of anagen was the darkening of skin color as melanocytes in the follicles started to synthesize melanin. The response time was measured as the number of days between initiation of treatment and when hair growth was present in 50% of the mice in a given group.
The results are reported as the number of days following initiation of treatment when hair growth appeared in 50% of the mice in a given group.

C3H/HeN mice [2] = assay: Telogen Conversion Assay; format: in vivo; details: Experiment 8; for Results: number of days following initiation of treatment when hair growth appeared in 50% of the mice: topical once daily for 5 days, solvent polyethylene glycol 30 v/v %, ethanol 30 v/v %, transcutanol 40 v/v %, vehicle 28; for Induction of anagen (conclusion in words): transcutol, ethanol, polypropylene glycol vehicle
[3] = Experiment 15, 0.03 w/v %, propylene glycol 30%/ethanol 70%, vehicle >30
[4] = Experiment 15, 0.3 w/v %, propylene glycol 30%/ethanol 70%, vehicle >30
[5] = Experiment 15, 1.0 w/v %, propylene glycol 30%/ethanol 70%, vehicle >30
[6] = Experiment 15, terminated early

Compound: Cn1nc(O[C@@H]2c3cc(S(=O)(=O)c4ccc(O)cc4)ccc3OC(C)(C)[C@@]2(C)O)ccc1=O [Compound #6]
- Results: number of days following initiation of treatment when hair growth appeared in 50% of the mice (C3H/HeN mice [1]; Experiment 2, 0.3 w/v %, propylene glycol 30%/ethanol 70%, vehicle 25): 18 days
- Results: number of days following initiation of treatment when hair growth appeared in 50% of the mice (C3H/HeN mice [1]; Experiment 2, 1.0 w/v %, propylene glycol 30%/ethanol 70%, vehicle 25): 30 days
- Results: number of days following initiation of treatment when hair growth appeared in 50% of the mice (C3H/HeN mice [1]; Experiment 5, 0.03 w/v %, propylene glycol 30%/ethanol 70%, vehicle >35): >35 days
- Results: number of days following initiation of treatment when hair growth appeared in 50% of the mice (C3H/HeN mice [1]; Experiment 5, 0.1 w/v %, propylene glycol 30%/ethanol 70%, vehicle >35): >35 days
- Results: number of days following initiation of treatment when hair growth appeared in 50% of the mice (C3H/HeN mice [1]; Experiment 5, 0.3 w/v %, propylene glycol 30%/ethanol 70%, vehicle >35): 23 days
- Induction of anagen (conclusion in words) (C3H/HeN mice [1]; Experiment 5, terminated early): induced anagen at the highest concentration tested (0.3%)
- Results: number of days following initiation of treatment when hair growth appeared in 50% of the mice (C3H/HeN mice [1]; Experiment 6, 0.003 w/v %, propylene glycol 30%/ethanol 70%, vehicle >35): >35 days
- Results: number of days following initiation of treatment when hair growth appeared in 50% of the mice (C3H/HeN mice [1]; Experiment 6, 0.03 w/v %, propylene glycol 30%/ethanol 70%, vehicle >35): >35 days
- Results: number of days following initiation of treatment when hair growth appeared in 50% of the mice (C3H/HeN mice [1]; Experiment 6, 0.3 w/v %, propylene glycol 30%/ethanol 70%, vehicle >35): >35 days
- Induction of anagen (conclusion in words) (C3H/HeN mice [1]; Experiment 6, terminated early, up to day 35): no effect was seen
- Results: number of days following initiation of treatment when hair growth appeared in 50% of the mice (C3H/HeN mice [1]; Experiment 7, 0.003 w/v %, propylene glycol 30%/ethanol 70%, vehicle 29): 31 days
- Results: number of days following initiation of treatment when hair growth appeared in 50% of the mice (C3H/HeN mice [1]; Experiment 7, 0.03 w/v %, propylene glycol 30%/ethanol 70%, vehicle 29): >33 days
- Results: number of days following initiation of treatment when hair growth appeared in 50% of the mice (C3H/HeN mice [1]; Experiment 7, 0.3 w/v %, propylene glycol 30%/ethanol 70%, vehicle 29): >33 days
- Induction of anagen (conclusion in words) (C3H/HeN mice [1]; Experiment 7, proceeded to completion): did not induce anagen prior to the control group
- Results: number of days following initiation of treatment when hair growth appeared in 50% of the mice (C3H/HeN mice [1]; [3]): >30 days
- Results: number of days following initiation of treatment when hair growth appeared in 50% of the mice (C3H/HeN mice [1]; [4]): 14 days
- Results: number of days following initiation of treatment when hair growth appeared in 50% of the mice (C3H/HeN mice [1]; [5]): >30 days
- Induction of anagen (conclusion in words) (C3H/HeN mice [1]; [6]): induced anagen when applied at a concentration of 0.3 w/v %

Compound: CCOC(=O)CCCn1nnnc1-c1ccc2c(c1)[C@H](Oc1ccc(O)nn1)[C@@](C)(O)C(C)(C)O2 [Compound #2]
- Results: number of days following initiation of treatment when hair growth appeared in 50% of the mice (C3H/HeN mice [1]; Experiment 3, 0.1 w/v %, propylene glycol 30%/ethanol 70%, terminated early): >35 days
- Results: number of days following initiation of treatment when hair growth appeared in 50% of the mice (C3H/HeN mice [1]; Experiment 3, 0.3 w/v %, propylene glycol 30%/ethanol 70%, terminated early): >35 days
- Results: number of days following initiation of treatment when hair growth appeared in 50% of the mice (C3H/HeN mice [1]; Experiment 3, 1.0 w/v %, propylene glycol 30%/ethanol 70%, terminated early): >35 days
- Results: number of days following initiation of treatment when hair growth appeared in 50% of the mice (C3H/HeN mice [1]; Experiment 3, 2.5 w/v %, propylene glycol 30%/ethanol 70%, terminated early): >35 days

Compound: Cn1nc(O[C@@H]2c3cc(S(=O)(=O)c4ccccc4O)ccc3OC(C)(C)[C@@]2(C)O)ccc1=O [Compound #7]
- Results: number of days following initiation of treatment when hair growth appeared in 50% of the mice (C3H/HeN mice [1]; Experiment 9, 0.03 w/v %, propylene glycol 30%/ethanol 70%, terminated early): >33 days
- Results: number of days following initiation of treatment when hair growth appeared in 50% of the mice (C3H/HeN mice [1]; Experiment 9, 0.3 w/v %, propylene glycol 30%/ethanol 70%, terminated early): >33 days
- Results: number of days following initiation of treatment when hair growth appeared in 50% of the mice (C3H/HeN mice [1]; Experiment 9, 1.0 w/v %, propylene glycol 30%/ethanol 70%, terminated early): >33 days
- Results: number of days following initiation of treatment when hair growth appeared in 50% of the mice (C3H/HeN mice [1]; Experiment 10, 0.1 w/v %, propylene glycol 30%/ethanol 70%, terminated early): >34 days
- Results: number of days following initiation of treatment when hair growth appeared in 50% of the mice (C3H/HeN mice [1]; Experiment 10, 0.1 w/v %, solvent polyethylene glycol 30 v/v %, ethanol 30 v/v %, transcutanol 40 v/v %, terminated early): >34 days
- Results: number of days following initiation of treatment when hair growth appeared in 50% of the mice (C3H/HeN mice [1]; Experiment 10, 0.3 w/v %, propylene glycol 30%/ethanol 70%, terminated early): >34 days
- Results: number of days following initiation of treatment when hair growth appeared in 50% of the mice (C3H/HeN mice [1]; Experiment 10, 0.3 w/v %, solvent polyethylene glycol 30 v/v %, ethanol 30 v/v %, transcutanol 40 v/v %, terminated early): >34 days
- Results: number of days following initiation of treatment when hair growth appeared in 50% of the mice (C3H/HeN mice [1]; [3]): >30 days
- Results: number of days following initiation of treatment when hair growth appeared in 50% of the mice (C3H/HeN mice [1]; [4]): >30 days
- Results: number of days following initiation of treatment when hair growth appeared in 50% of the mice (C3H/HeN mice [1]; [5]): >30 days
- Induction of anagen (conclusion in words) (C3H/HeN mice [1]; [6]): showed no effect at the time of termination
- Results: number of days following initiation of treatment when hair growth appeared in 50% of the mice (C3H/HeN mice [2]; 0.3 w/v %): 21 days
- Results: number of days following initiation of treatment when hair growth appeared in 50% of the mice (C3H/HeN mice [2]; 1.0 w/v %): 21 days
- Induction of anagen (conclusion in words) (C3H/HeN mice [2]): did exhibit activity

Compound: Cn1nc(OC2c3cc(S(=O)(=O)c4ccc(O)cc4)ccc3OC(C)(C)C2(C)O)c2ccccc2c1=O (stereo not drawn) [Compound #4]
- Results: number of days following initiation of treatment when hair growth appeared in 50% of the mice (C3H/HeN mice [2]; 0.3 w/v %): >35 days
- Results: number of days following initiation of treatment when hair growth appeared in 50% of the mice (C3H/HeN mice [2]; 1.0 w/v %): >35 days
- Induction of anagen (conclusion in words) (C3H/HeN mice [2]): inactive

Compound: CCOC(=O)CCCn1nnnc1-c1ccc2c(c1)[C@@H](Oc1ccnc(O)c1)[C@](C)(O)C(C)(C)O2 [Compound #5]
- Results: number of days following initiation of treatment when hair growth appeared in 50% of the mice (C3H/HeN mice [2]; 0.3 w/v %): >35 days
- Results: number of days following initiation of treatment when hair growth appeared in 50% of the mice (C3H/HeN mice [2]; 1.0 w/v %): >35 days
- Induction of anagen (conclusion in words) (C3H/HeN mice [2]): inactive

Compound: CCOc1c(N[C@@H]2c3cc(S(=O)(=O)c4cccc(O)c4)ccc3OC(C)(C)[C@@]2(C)O)c(=O)c1=O [Compound #3]
- Results: number of days following initiation of treatment when hair growth appeared in 50% of the mice (C3H/HeN mice [2]; 0.3 w/v %): >35 days
- Results: number of days following initiation of treatment when hair growth appeared in 50% of the mice (C3H/HeN mice [2]; 1.0 w/v %): >35 days
- Induction of anagen (conclusion in words) (C3H/HeN mice [2]): inactive
